{"source": "paper PMC9934487", "about": "“Aging decreases docosahexaenoic acid transport across the blood-brain barrier in C57BL/6J mice” (PLOS ONE, 2023)", "key": {"[1]": {"system": "bovine brain endothelial cells", "design": "method as in PMID: 9886086", "details": "2 h incubation; ref PMID: 9886086; cited from earlier work"}, "[2]": {"assay": "In situ transcardiac brain perfusion competition assay with excess unlabeled DHA: brain uptake rate (Ki) in 2-month-old mice", "procedure": "(§1) Brain uptake of DHA was assessed in mice using an in situ transcardiac brain perfusion technique. […] The [1-^14C]DHA as NE-DHA (American Radiolabeled Chemicals, St. Louis, MO, USA; ARC0380), [^3H]mannitol (PerkinElmer, Waltham, MA, USA, NET101) and [^14C]sucrose (PerkinElmer, Waltham, MA, USA; NEC100X) were diluted to concentrations of 0.1 μCi/mL (DHA and sucrose) and 0.2 μCi/mL (mannitol) in a physiological buffer containing 141 mM NaCl (Sigma, St. Louis, MO, USA; 28–2270–5), 4 mM KCl (Wako, Osaka, Japan; 163–03545), 2.8 mM CaCl2 (Sigma; 05–0580), 1 mM MgSO4·7H2O (Kishida Chemical Co., Ltd., Osaka, Japan; 000–46905), 1 mM NaH2PO4·2H2O (Wako; 192–02815), 10 mM d-glucose (Wako; 041–00595), and 10 mM 4-(2-hydroxyethyl)-1-piperazineethanesulfonic acid (HEPES; Sigma; H4034); pH 7.4. In a competition assay, unlabeled NE-DHA (Sigma; D2534-100MG) was added to the perfusate (final concentration of unlabeled DHA: 100 μM) before infusion. Ethanol (Nacalai Tesque, Kyoto, Japan; 14713–95) was added to an equal volume of unlabeled DHA to the perfusate (final ethanol concentration: 0.001%) as the vehicle control.\n(§2) Mice were anesthetized using an intraperitoneal injection of 25% urethane (Sigma; 94300). The heart was exposed, the left jugular vein was severed, and the descending aorta was ligated. Perfusate containing [^14C]DHA, [^3H]mannitol, or [^14C]sucrose was then infused into the left ventricle of the heart at a rate of 2 mL/min for 0.5 to 1.5 min using a 27 gauge butterfly needle. In the uptake experiment for aged mice, the perfusate was infused for 1 min. After perfusion, the brain was removed, dissected into six regions (the olfactory bulb, forebrain, cortex, hippocampus, thalamus and hypothalamus, and cerebellum), and weighed. Each brain region was mixed with 1 mL of tissue solubilizer (Solvable™; PerkinElmer; 6NE9100) and incubated at 60°C for 24 h. Samples were prepared for scintillation counting by the addition of 0.2 mL H2O2 (Sigma; 13-1910-5) and 10 mL of liquid scintillation cocktail (Pico-Fluor Plus; PerkinElmer; 6013699). The radioactivity in the samples was then measured using a liquid scintillation counter (Packard 2250CA; PerkinElmer). Brain/perfusate ratios were calculated by dividing the radioactivity in 1 g of brain tissue by the radioactivity in an mL of perfusate. Whole brain values were calculated by dividing the total radioactivity in each brain region by the total weight of each brain region. The unidirectional influx rate (Ki) was determined by the linear portion of the slope in the plot of brain/perfusate ratio against perfusion time.\nResults are expressed as the mean ± standard error of the mean (SEM). Statistical analyses were performed using GraphPad Prism 8.0 (GraphPad, San Diego, CA, USA). […]"}, "[3]": {"system": "rat brain endothelial cells (RBECs)", "assay": "Cellular uptake of [14C]DHA by primary rat brain endothelial cells", "format": "cell-based", "description": "The method of primary culture of rat brain endothelial cells (RBECs) is previously described. The meninges and white matter were carefully removed from the forebrains, and the gray matter was minced using a scalpel and enzymatic digestion by DMEM (Wako; 048–29763), including collagenase type 2 (1 mg/mL, Worthington, Lakewood, NJ, USA; CLS2) for 75 min at 37°C with agitation in the water bath. After inactivation by adding cold DMEM, the suspension was centrifuged (1,000 × g, 8 min). The pellet was separated by centrifugation in 20% BSA, (Wako, 011–27055)—DMEM (1,000 × g, 20 min). The pellet containing microvessels were further digested with DMEM including collagenase/dispase (1 mg/mL, Roche, Mannheim, Germany; 11097113001) for 20 min at 37°C with agitation in the water bath. After inactivation, microvessel clusters were separated on a 33% continuous Percoll (GE Healthcare, Buckinghamshire, UK; 17-5445-01) gradient, collected and plated on collagen type IV (0.1 mg/mL, Sigma; C5533) and fibronectin (0.075 mg/mL, Sigma; F1141-5MG) coated dishes. RBEC cultures were maintained in RBEC medium [DMEM/F12 (Wako; 042–30555) supplemented with 10% FBS (Biosera, Kansas, MO, USA; FB-1365/500), basic fibroblast growth factor (1.5 ng/mL, R&D, Minneapolis, MN, USA; 2099-FB-025), heparin (100 μg/mL, Sigma; H3149), insulin (5 μg/mL), transferrin (5 μg/mL), sodium selenite (5 ng/mL; insulin-transferrin-sodium selenite media supplement, Sigma; I1884), penicillin (100 units/mL), streptomycin (100 μg/mL; penicillin-streptomycin mixed solution, Nacalai Tesque; 09367–34) and gentamicin (50 μg/mL, Biowest, Riverside, MO, USA; L0012)] containing puromycin (4 μg/mL, Nacalai Tesque; 14861–84) at 37°C in a humidified atmosphere of 5% CO2/95% air, for three days and typically reached 70–80% confluency. […]\nTo measure the cellular uptake of DHA, RBECs cultured on a 24-well plate were incubated with 0.2 mL of physiological buffer containing 0.1 μCi/mL [^14C]DHA (incubation buffer) at 37°C for 30 s to 15 min. […] The total protein concentration in the cell lysates was determined using a Pierce™ BCA Protein Assay Kit. Samples were added to 10 mL of a liquid scintillation cocktail, then [^14C]DHA radioactivity in the cell lysate was measured using a liquid scintillation counter. The cellular uptake of [^14C]DHA by RBECs was expressed as cell/medium ratios calculated by dividing the radioactivity in one milligram of protein by the radioactivity in one microliter of the incubation buffer. The rate of cellular uptake was determined by the linear portion of the slope of the cell/medium ratios against the incubation time (0.5, 2, 5, and 10 min) graph."}, "[4]": {"assay": "In situ transcardiac brain perfusion: brain/perfusate ratio at 1 min in 2-, 8-, 12- and 24-month-old mice", "format": "in vivo, C57BL/6J mice", "details": "for decrease of [14C]DHA brain/perfusate ratio: 1 min perfusion at 2 mL/min", "procedure": "as §1, §2"}, "[5]": {"details": "cited from earlier work"}, "[6]": {"design": "method as in PMID 33054801", "details": "ref PMID 33054801; cited from earlier work"}, "[7]": {"details": "co-infusion of an excess amount of DHA"}, "[8]": {"details": "capillary depletion after a 40 s in situ brain perfusion, ref PMID: 19442696"}}, "note": "Entries after “also recorded” stand apart in the source; their conditions may differ.", "data": [{"smiles": "CC/C=C\\C/C=C\\C/C=C\\C/C=C\\C/C=C\\C/C=C\\CCC(=O)O", "note": "[unlabeled DHA, Docosahexaenoic acid]", "values": [{"measurement": "fate of non-esterified DHA taken up by brain endothelial cells", "setting": "[1]", "result": "mainly incorporated into phosphatidylcholine"}, {"measurement": "inhibition at 100 µM", "setting": "[2]; Mus musculus, read-out: extent of inhibition of the brain uptake rate of [14C]DHA", "result": "~50", "unit": "%"}, {"measurement": "effect on cellular uptake rate of [14C]DHA in rat brain endothelial cells", "setting": "[3]; in the presence of unlabeled DHA, vs vehicle (Fig. F of response letter)", "result": "declined; also recorded: decreased"}]}, {"smiles": "OC[C@@H](O)[C@@H](O)[C@H](O)[C@H](O)CO", "note": "[[^3H]mannitol, mannitol]", "values": [{"measurement": "Kin for [3H]mannitol", "setting": "[2]; [7]", "result": "not changed"}, {"measurement": "brain/perfusate ratio of [3H]mannitol", "setting": "[2]; [7]", "result": "increased"}, {"measurement": "effect of age on brain uptake of [3H]mannitol", "setting": "[4]; each brain region, 2-, 8-, 12-, 24-month-old mice, 1 min", "result": "no significant effects with age"}, {"measurement": "change in brain uptake (brain/perfusate ratio) of [3H]mannitol with age", "setting": "[4]; whole brain, 2-, 8-, 12-, 24-month-old mice, 1 min", "result": "No significant changes; also recorded: no significant differences"}]}, {"smiles": "CC/C=C\\C/C=C\\C/C=C\\C/C=C\\C/C=C\\C/C=C\\CCC(=O)O", "note": "[[^14C]DHA, Docosahexaenoic acid]", "values": [{"measurement": "[14C]DHA detected in brain parenchymal fraction", "setting": "[5]; [8]", "result": "more than 90%"}, {"measurement": "[14C]DHA remaining in the endothelial cells of the brain vasculature", "setting": "[5]; [8]", "result": "less than 10%"}, {"measurement": "[14C]DHA remaining in endothelial cells of the brain vasculature", "setting": "[5]; capillary depletion after brain perfusion, ref 12 (printed [40])", "result": "less than 10%"}, {"measurement": "perfusion time at which brain uptake of [14C]DHA plateaued", "setting": "[2]; 2-month-old mice, perfusion at 2 mL/min", "result": 1.5, "unit": "min"}, {"measurement": "difference of [14C]DHA brain/perfusate ratio", "setting": "[4]; forebrain, 2 vs. 12 months old", "result": 0.04489, "unit": "mL/g"}, {"measurement": "difference of [14C]DHA brain/perfusate ratio", "setting": "[4]; forebrain, 2 vs. 24 months old", "result": 0.05294, "unit": "mL/g"}, {"measurement": "difference of [14C]DHA brain/perfusate ratio", "setting": "[4]; hippocampus, 2 vs. 12 months old", "result": 0.03402, "unit": "mL/g"}, {"measurement": "difference of [14C]DHA brain/perfusate ratio", "setting": "[4]; hippocampus, 2 vs. 24 months old", "result": 0.06034, "unit": "mL/g"}, {"measurement": "difference of [14C]DHA brain/perfusate ratio", "setting": "[4]; olfactory bulb, 2 vs. 24 months old", "result": 0.04626, "unit": "mL/g"}, {"measurement": "difference of [14C]DHA brain/perfusate ratio", "setting": "[4]; thalamus and hypothalamus, 2 vs. 12 months old", "result": 0.04306, "unit": "mL/g"}, {"measurement": "difference of [14C]DHA brain/perfusate ratio", "setting": "[4]; thalamus and hypothalamus, 2 vs. 24 months old", "result": 0.05106, "unit": "mL/g"}, {"measurement": "decrease of [14C]DHA brain/perfusate ratio", "setting": "[4]; whole brain, 12-month-old vs 2-month-old mice", "result": 0.03275, "unit": "mL/g"}, {"measurement": "decrease of [14C]DHA brain/perfusate ratio", "setting": "[4]; whole brain, 24-month-old vs 2-month-old mice", "result": 0.03827, "unit": "mL/g"}, {"measurement": "rate of cellular uptake of [14C]DHA by RBECs", "setting": "[3]; 4°C", "result": 19.98, "unit": "μLmg protein^-1 min^-1"}, {"measurement": "rate of cellular uptake of [14C]DHA by RBECs", "setting": "[3]; 37°C", "result": 50.13, "unit": "μLmg protein^-1 min^-1"}, {"measurement": "time at which cellular uptake of [14C]DHA by RBECs peaked", "setting": "[3]; intact RBECs, 37°C", "result": 10, "unit": "min"}]}, {"smiles": "OC[C@@H](O)[C@@H](O)[C@H](O)[C@H](O)CO", "note": "[mannitol]", "values": [{"measurement": "brain concentrations and Kin compared with sucrose", "setting": "[6]", "result": "higher"}]}]}
